According to US20090023700A1, “NEUROPROTECTIVE TREATMENTS” (University of Louisville Research Foundation, priority 2007, published 2009):
“And” between values parts separate entries of the source, which are not always exact repeats. Identical values can stand only once.

Assays:
[1] = system: T9 contusive spinal cord injury; assay: T9 spinal cord contusion, intrathecal infusion: CTB tracing, white matter (EC) and C3 axon histology; format: in vivo, rat; conditions: for CTB-traced fiber area in the gracile nucleus: PBS 43+/−17
[2] = Observation of overall health status, general behavior and grooming; format: in vivo, rat; conditions: any of the bpV(phen)- and PBS-treated groups
Description: (§1) Whether bpV(phen) might have detrimental side effects, such as inducing pain at the level of the injury, was tested. Severe spinal cord injury can induce hypersensitivity and mechanical allodynia (a painful response to a nonpainful tactile skin stimulus) at the level of injury. […] Differences between any of the bpV(phen)- and PBS-treated groups in the overall health status, general behavior, and grooming of the rats were not observed.

AP1 = conditions: macrophages; cited from earlier work
[3] = system: Madin-Darby canine kidney cells; conditions: H2O2-susceptible Madin-Darby canine kidney cells; cited from earlier work
[4] = system: T9 contusive spinal cord injury; assay: Semmes-Weinstein filament test for at-level pain (allodynia); format: in vivo, rat; conditions: 100 μM, 28 d L5/6 infusion
Description: as §1

[5] = system: T9 contusive spinal cord injury; assay: Sensory-evoked potentials (SEP) after 0.4 mm T9 contusion; format: in vivo, rat; conditions: 0.4 mm contusion
Ser/Thr phosphatases = conditions: cited from earlier work
C6 cells = conditions: cited from earlier work
[6] = 100 μM, 7 d L5/6 infusion started immediately after 0.3 mm contusion

O.O.O.OO.OO.[K+].[OH-].[V].c1cnc2c(c1)ccc1cccnc12 [bpV(phen), potassium bisperoxo(1,10-phenanthroline)oxovanadate (V)]
CTB-traced fiber area in the gracile nucleus ([1]; 30 μM, 7 d L5/6 infusion started immediately after 0.3 mm contusion): 60+/−5% | CTB-labeled terminal fiber area in the gracile nucleus ([1]; 30 μM, 7 d intrathecal infusion at T9 started immediately after 0.3 mm contusion, PBS 17+/−7%): 47+/−6 % of sham | area of spared white matter in the dorsal column at injury epicenter ([1]; 30 μM, 7 d intrathecal infusion at T9 started immediately after 0.3 mm contusion, PBS 28+/−6%): 50+/−8 % of sham | spared dorsal column white matter at the epicenter ([1]; 100 μM, 7 d L5/6 infusion started 4 h after 0.3 mm contusion, PBS 37+/−6%): 78+/−7% | gracile nucleus innervation (CTB) ([1]; 100 μM, 7 d L5/6 infusion started 4 h after 0.3 mm contusion, PBS 66+/−11%): 100+/−7% | total white matter ([1]; 100 μM, 7 d L5/6 infusion started 4 h after 0.3 mm contusion, PBS 70+/−5%): 103+/−4% | area of spared dorsal column white matter at the injury epicenter [1, 6]: 58+/−12% | CTB-traced fiber area in the gracile nucleus [1, 6]: 93+/−11% | total white matter at the epicenter ([1]; 100 μM, 7 d L5/6 infusion started immediately after 0.3 mm contusion, PBS 68+/−6%): 90+/−12% | CTB-labeled innervation of the gracile nucleus ([1]; 100 μM, 28 d L5/6 infusion started 4 h after contusion, 42 d after injury, 14 d after end of infusion, PBS 68+/−11%): 106+/−9 % of sham | area of spared white matter in the dorsal column at the T9 injury epicenter ([1]; 100 μM, 28 d L5/6 infusion started 4 h after contusion, 42 d after injury, PBS 48+/−8%): 79+/−7% and 80% | number of myelinated axons in fasciculus gracilis at C3 ([1]; 100 μM, 28 d L5/6 infusion started 4 h after contusion, 42 d after injury, PBS 63+/−6%): 102+/−5% | CTB-traced fiber area in the gracile nucleus ([1]; 300 μM, 7 d L5/6 infusion started immediately after 0.3 mm contusion): 80+/−14% | differences versus PBS groups in overall health status, general behavior and grooming [2]: not observed | AP1 activation (AP1): activates | cell death [3]: does not cause death | induction of pain by chronic infusion [4]: do not induce pain | Semmes-Weinstein filament size evoking a response (pain at level of injury) ([4]; entire test period): not different from those of the PBS group | SEP amplitude, group average ([5]; 100 μM 7 d lumbar infusion started immediately, one week after contusion, PBS 6+/−6, sham 16): 21+/−7 μV | rats with an SEP above background noise ([5]; 100 μM 7 d lumbar infusion, one week after contusion, PBS one of five): four of five | SEP amplitude, group average ([5]; 100 μM 7 d lumbar infusion, one week after termination of infusion, PBS 2+/−2, sham 36): 30+/−18 μV | rats with a detectable SEP ([5]; 100 μM 7 d lumbar infusion, one week after termination of infusion, PBS one rat): all rats | inhibition of Ser/Thr phosphatases (Ser/Thr phosphatases): not | oxidative damage to DNA (C6 cells): does not cause oxidative damage to DNA
